# Results as given in PubChem BioAssay (NCI).
#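 Grown in 96-well plates, cells were treated for 48 hours with each compound at five concentrations. Insufficient inhibition: endpoint recorded as highest concentration tested. Definition used: TGI = concentration required for complete inhibition of growth.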 Where a SMILES comes first, the peptide text is derived from it. [ ]: non-standard residue; d: D form. The star is where a group is joined. ξ: configuration not given here. Propanoyl(3-(4-MeO-Ph)) = COc1ccc(CCC(=O)*)cc1; Thr(3ξ) = CC(O)[C@H](N)C(=O)O; dNMeL = CN[C@H](CC(C)C)C(=O)O; ξLac = CC(O)C(=O)O
# Legend:
# Assay in all cases: NCI-60 cell line screen, 48 h
# SK-MEL-2 melanoma = system: SK-MEL-2 melanoma
# EKVX NSCLC = system: EKVX NSCLC
# MDA-MB-231 breast = system: MDA-MB-231 breast
# RXF 393 renal = system: RXF 393 renal
# NCI-H460 lung = system: NCI-H460 lung
# MDA-MB-435 = system: MDA-MB-435
# SW-620 colon = system: SW-620 colon
# SF-295 CNS = system: SF-295 CNS
# 786-0 renal = system: 786-0 renal
# SK-OV-3 ovarian = system: SK-OV-3 ovarian
# SF-539 CNS = system: SF-539 CNS
# A549 NSCLC = system: A549 NSCLC
# MCF7 breast = system: MCF7 breast
# SNB-19 CNS = system: SNB-19 CNS
# M14 melanoma = system: M14 melanoma
# NCI-H226 lung = system: NCI-H226 lung
# NCI-H522 lung = system: NCI-H522 lung
# SN12C renal = system: SN12C renal
# OVCAR-4 ovarian = system: OVCAR-4 ovarian
SMILES,TGI (SK-MEL-2 melanoma) [µM],TGI (EKVX NSCLC) [µM],TGI (MDA-MB-231 breast) [µM],TGI (RXF 393 renal) [µM],TGI (NCI-H460 lung) [µM],TGI (MDA-MB-435) [µM],TGI (SW-620 colon) [µM],TGI (SF-295 CNS) [µM],TGI (786-0 renal) [µM],TGI (SK-OV-3 ovarian) [µM],TGI (SF-539 CNS) [µM],TGI (A549 NSCLC) [µM],TGI (MCF7 breast) [µM],TGI (SNB-19 CNS) [µM],TGI (M14 melanoma) [µM],TGI (NCI-H226 lung) [µM],TGI (NCI-H522 lung) [µM],TGI (SN12C renal) [µM],TGI (OVCAR-4 ovarian) [µM]
Cc1nc2c(Cl)cc(Cl)cc2c(Cl)c1CCCl,> 100,> 100,> 100,79.3,> 100,> 100,> 100,> 100,> 100,> 100,> 100,> 100,> 100,> 100,> 100,> 100,> 100,> 100,–
COC12OC3CC4(C)C(=CC3OC(OC(C)C1O)C2O)CCC1C4CCC2(C)C(c3ccc(=O)oc3)CCC12O (configuration not stated),0.00448,< 0.001,0.00792,0.0116,0.00224,0.00564,0.00731,0.447,0.00195,0.272,0.00167,0.00166,0.00432,0.00455,0.00497,0.00676,< 0.001,0.00153,0.00199
NNC(=O)CCC(NS(=O)(=O)c1ccc(Cl)cc1)C(=O)NN (configuration not stated),> 100,> 100,> 100,> 100,> 100,> 100,> 100,> 100,> 100,> 100,> 100,> 100,> 100,> 100,> 100,> 100,> 100,> 100,> 100
O=S(=O)(O)c1cc(Nc2ccnc3ccccc23)c2c(S(=O)(=O)O)cc(S(=O)(=O)O)cc2c1,> 100,> 100,> 100,> 100,> 100,> 100,> 100,–,> 100,> 100,> 100,> 100,> 100,–,> 100,> 100,> 100,> 100,> 100
COC(=O)[C@@H](NC(=O)[C@@H](CC(C)C)N(C)C(=O)[C@@H]1CCCN1C(=O)C(C)O)C(C)OC(=O)CCc1ccc(OC)cc1 (some centres not stated) (H-[ξLac]P[dNMeL][Thr(3ξ)](Propanoyl(3-(4-MeO-Ph)))-OMe),> 100,> 100,> 100,> 100,> 100,> 100,> 100,> 100,> 100,> 100,> 100,> 100,> 100,> 100,> 100,> 100,> 100,> 100,> 100
CSC1(SC)N2Cc3ccccc3N=C2C1(c1ccccc1)c1ccccc1,> 58.1,> 89,> 100,> 48.6,64.3,16,> 63.7,> 100,> 100,> 100,31.6,> 100,> 87.9,> 100,> 100,> 100,29.4,> 64.1,> 100
COc1cc(/C=c2/c3ccccc3n3c2cc(-c2ccccc2)[n+]3C)cc(OC)c1OC,8.06,22.4,14.8,6.18,17.1,6.19,14.5,19.2,16.4,23.2,8.64,> 100,20.6,17.9,> 35.8,32.8,9.6,12,8.61
COc1cc(O)c2c(=O)c(OC)c(-c3ccc4c(c3)OCO4)oc2c1OC,> 50,> 50,> 50,> 50,> 50,> 50,> 50,> 50,> 50,> 50,> 50,> 50,> 50,> 50,> 50,> 50,> 50,> 50,> 50
CN(C)CCCNc1cnc2cc3ccccc3cc2n1,44.8,> 100,41.4,50.2,> 100,79.2,> 100,52.4,> 100,> 100,68.8,> 100,44.8,> 100,50.5,40.6,55.5,> 100,91.4
COC(=O)c1c(O)ccc2c1c1c(n2Cc2ccccn2)C(=O)c2ccccc2C1=O,> 100,> 100,> 100,> 100,> 100,> 100,–,70.6,> 100,61.1,42.9,> 100,> 100,> 100,> 100,> 100,95.6,> 100,–
O=C(Cc1ccccc1)N=Nc1c(O)[nH]c2ccccc12,> 100,> 100,> 100,> 100,> 100,> 100,–,> 100,> 100,> 100,> 100,> 100,> 100,> 100,> 100,> 100,> 100,> 100,> 100
COc1nc2ccc(CNc3ccc(C(=O)O)cc3)cc2nc1OC,> 10,> 10,> 10,> 10,> 10,> 10,> 10,> 10,> 10,> 10,> 10,> 10,> 10,> 10,> 10,> 10,> 10,> 10,> 10
COc1cccc2c1-c1c(OC)cccc1SS2,46.4,31.4,56.1,63.6,43.8,15.1,47.2,43.6,36.2,–,33.4,33.5,> 100,76.7,> 100,42.7,64.5,30.3,90.5
Cc1ccc(C(=O)C2=CN=C3C(=O)N(c4ccccc4)N(C)C3(C)C2=N)cc1 (configuration not stated),> 100,> 100,> 100,> 100,> 100,> 100,> 100,> 100,> 100,> 100,> 100,> 100,> 100,–,> 100,> 100,> 100,> 100,> 100
CC(C)(C)OC(=O)N1Cc2cc(O)ccc2C[C@H]1C(=O)O,> 100,> 100,> 100,> 100,> 100,> 100,> 100,> 100,> 100,> 100,> 100,> 100,> 100,> 100,–,> 100,> 100,> 100,> 100
COc1c(-c2cccs2)oc2c(CC(=O)O)cccc2c1=O,> 100,> 100,> 100,> 100,–,> 100,–,> 100,> 100,> 100,> 100,> 100,> 100,–,> 100,–,> 100,> 100,–
Clc1cc(OCC23CC4CC(CC(C4)C2)C3)nc(OCC23CC4CC(CC(C4)C2)C3)n1,> 100,> 100,> 100,> 100,> 100,> 100,> 100,> 100,> 100,> 100,> 100,> 100,> 100,> 100,> 100,–,> 100,> 100,> 100
COc1cc([C@@H]2c3cc4c(cc3[C@@H](N=Cc3ccc(C(=O)O[C@@H](C(=O)O[C@H]5C[C@@]6(O)[C@@H](OC(=O)c7ccccc7)[C@@H]7[C@]8(OC(C)=O)CO[C@@H]8C[C@H](O)[C@@]7(C)C(=O)[C@H](OC(C)=O)C(=C5C)C6(C)C)[C@@H](NC(=O)c5ccccc5)c5ccccc5)cc3)[C@H]3COC(=O)[C@H]23)OCO4)cc(OC)c1O,–,> 47,> 13.9,> 31.1,> 50,0.00867,> 50,24.8,> 50,> 22.7,1.47,> 50,7.38,> 50,> 50,–,> 50,> 50,> 50
Cc1oncc1NC1=CC(=O)C(=O)c2ccccc21,–,32.5,32.8,27.5,20.3,3.51,17.1,20.6,32.2,37.8,15.1,15.7,9.63,46.8,17,39.4,19.2,17.1,12.9
COc1ccc(N2C(N)=C(C#N)C(C#N)(C#N)C2c2cccc([N+](=O)[O-])c2)cc1 (configuration not stated),33.2,39.7,29.1,23.6,–,31.9,26,39.5,29.1,38.9,28.9,34.2,40.2,32.5,35.6,35.4,20.7,30.8,32
COc1ccc(S(=O)(=O)Nc2ccc(-c3csc(N4C(=O)/C(=C/c5ccccc5)N=C4c4ccccc4)n3)cc2)cc1Cl,> 100,–,46.2,73.3,> 100,> 100,> 100,> 100,> 100,> 100,> 100,> 100,> 100,> 100,71.9,> 100,> 100,> 100,99.4
COc1ccc2oc(=Nc3ccc(F)cc3)c(C(N)=O)cc2c1,74.7,> 100,39.3,37.3,> 100,> 100,> 100,> 100,40.4,52.1,–,> 100,> 100,> 100,> 100,> 100,> 100,> 100,> 100
COc1ccc(-c2nnc(-c3ccncc3)o2)cc1,> 100,> 100,> 100,> 100,–,> 100,–,> 100,> 100,> 100,> 100,> 100,> 100,> 100,> 100,> 100,> 100,> 100,> 100
O=C(O)CN(CC(=O)O)Cc1ccn(-c2cccc(-n3ccc(CN(CC(=O)O)CC(=O)O)n3)n2)n1,> 100,> 100,> 100,> 100,> 100,> 100,> 100,> 100,> 100,> 100,> 100,> 100,> 100,> 100,> 100,> 100,> 100,> 100,–
